# Results reported in US20090042898A1, “USE OF COMPOUNDS ACTIVE ON THE SIGMA RECEPTOR FOR THE TREATMENT OF MECANICAL ALLODYNIA” (priority 2004, published 2009).
# Assays:
# [1] = tested on: mechanical allodynia in mice exposed to the sciatic nerve injury; test: Von Frey model in mice exposed to sciatic nerve injury (partial sciatic nerve ligation); assay type: in vivo; conditions: FIG. 5, 60 mg/kg subcutaneous, Day 11 after surgery, ipsilateral
# Protocol: The partial sciatic nerve ligation model was used to induce neuropathic pain (Malmberg and Basbaum, Pain 76: 215-222, 1998). This model consists of injury to the sciatic nerve at mid-to high level. Briefly, mice were anaesthetized with halothane (induction: 3%; surgery: 1%) and the common sciatic nerve was exposed at the level of the mid-thigh of the right paw. In control animals (sham-operated mice), an identical dissection was performed on the right paw except that the sciatic nerve was not ligated (Control). Nociceptive sensitivity was then measured was quantified by measuring the hind paw withdrawal response to von Frey filament stimulation as mentioned above. Animals underwent surgery on day 0; 11 days after surgery BD-1063 was injected subcutaneously in one group and the responses to mechanical stimuli were determined by means of the von Frey model in this and the none-treated group (before surgery) a reference value was measured in order to determine a baseline value.
# [2] = tested on: capsaicin-induced allodynia; test: Von Frey model, capsaicin-induced mechanical allodynia; assay type: in vivo, mice
# Description: The von Frey model is a model for allodynia, stimulated mechanically (mechanical allodynia).
# Interest of the model: • The injection of capsaicin to experimental animals produces acute pain followed by allodynia • The mechanisms involved in capsaicin-induced acute pain and allodynia are relatively well known (mainly activation of peripheral nociceptors and sensitization of spinal cord neurons, respectively)
# After habituation mice were according to FIG. 1 first treated with the test-compound (or not in controls). Then capsaicin (1% DMSO) is injected into their paw resulting in developing pain in the effected paw. The effected paw is then treated with a mechanical stimulus and the latency time before the paw is withdrawn is measured.
# 2 well known antisense Oligodesoxynucleotides (ODN) against the sigma 1 receptor (King et al. (1997) Eur J Pharmacol 331:R5-R6 and Ueda et al. (2001) J. Pharmacol. Exp. Ther. 298, 703-710) were synthesized and according to the protocol shown in FIG. 3a) given on 4 consecutive days i.c.v. followed by a wash-out period and von-Frey tests according to example 1.
# [3] = tested on: sigma receptor; conditions: Sigma 1 and Sigma 2 for pentazocine; cited from earlier work
smiles,measurement,setting,value
"CN1CCN(CCc2ccc(Cl)c(Cl)c2)CC1 [BD-1063, 1-(3,4-dichlorophenethyl)-4-methylpiperazine]","effect on mechanical allodynia, von Frey model",[1],antagonizes mechanical allodynia in mice exposed to the (ipsilateral) sciatic nerve injury significantly
CCCN(CCC)CCc1ccc(OC)c(OCCc2ccccc2)c1 [NE-100],"analgesia in capsaicin-induced allodynia, dose dependency","[2]; FIG. 2a, mice, von Frey filaments",dose dependency of the treatment with NE-100 showing analgesia
same,efficacy depending on the force of the von-Frey filaments (0.5 g allodynia vs 4 g general pain),"[2]; FIG. 2b, NE-100 64 mg/kg",effective specifically in allodynia or mechanical allodynia and not general pain
same,affinity to the sigma receptor,[3],high affinity
O=C(OCCN1CCOCC1)C1(c2ccccc2)CCCCC1 [PRE-084],effect of sigma receptor agonist on the effect of NE-100,"[2]; FIG. 2c, given with NE-100",counteracting the effect of NE-100
CC(C)=CCN1CCC2(C)c3cc(O)ccc3CC1C2C (stereo not drawn) [pentazocine],affinity to the sigma receptor,[3],very high affinity
